The values that follow come from US8106015B2, “Method for enhancing immune response with peptide” (Juridical Foundation The Chemo-Sero-Therapeutic Research …, priority 2007, dated 2012).

Holding throughout (assay type): in vivo, C57BL/6 mice
For assay [1], the system named is anti-Aβ IgG antibody. Nature of the assay: Example 5: anti-Aβ IgG antibody titer, cysteine at the C-terminal, the N-terminal and both terminals. The conditions noted are these: Day 7 from the final 4th immunization; for Antibody titer, Mean: group mean of 4 mice; for Antibody titer: individual animals (No. 1-4), 100 μg/mouse, 2-week intervals, no adjuvant.
Assay [2] relates to anti-Aβ IgG antibody. The assay is described as follows: Example 6: anti-Aβ IgG antibody titer, Aβ peptide sequences with insertion of cysteine. The conditions noted are these: Day 7 from the final 4th immunization; for Antibody titer, Mean: group mean of 4 mice; for Antibody titer: individual animals (No. 1-4), 100 μg/mouse, 2-week intervals, no adjuvant.
Assay [3] concerns anti-Aβ IgG antibody. The assay is described as follows: Example 3: anti-Aβ IgG antibody titer, Aβ peptides with addition of cysteine of 26-40 amino acids in length. The conditions noted are these: Day 7 from final 3rd immunization; for Antibody titer, Mean: group mean of 4 mice; for Antibody titer: individual animals (No. 1-4), 100 μg/mouse, 3 times at 2-week intervals, no adjuvant.

The test system of assay [4] is anti-Aβ IgG antibody. Nature of the assay: Example 2: anti-Aβ IgG antibody titer, Aβ peptide with cysteine vs carrier-linked Aβ peptide with/without adjuvant. Conditions: Day 7 from final 3rd immunization.
Assay [5] deals with anti-Aβ IgG antibody. Nature of the assay: Example 7: anti-Aβ IgG antibody titer, Aβ peptide with cysteine plus exogenous amino acid sequence. The conditions noted are these: Day 7 from the final 4th immunization; for Antibody titer, Mean: group mean of 4 mice; for Antibody titer: individual animals (No. 1-4), 100 μg/mouse, 2-week intervals, no adjuvant.
For assay [6], the system named is anti-Aβ IgG antibody. The assay is described as follows: Example 10: anti-Aβ IgG antibody titer, Aβ peptide with/without cysteine, with and without adjuvant. The conditions noted are these: Day 7 from final 3rd immunization.
Assay [7] has as its system anti-Aβ IgG antibody. Nature of the assay: Example 4: anti-Aβ IgG antibody titer, Aβ peptides with 0, 1 or 2 molecules of cysteine added.
Assay [8] relates to anti-Aβ IgG antibody. The assay is described as follows: Example 1: anti-Aβ IgG antibody titer in murine serum after immunization with Aβ peptides with and without addition of cysteine.
Where [9] appears, read: group mean of 4 mice, serum, 100 μg/mouse intradermally or subcutaneously, 2-week intervals, no adjuvant.

Several values for one entry are separate records, joined by “and”; a condition that tells them apart may be missing. Identical values can stand only once.

“CDAEFRHDSGYEVHHQKLVFFAEDVGSNK [Cys28AA, Peptide with addition of 1 molecule of cysteine at the N-terminal]”: in the assay with anti-Aβ IgG antibody [1], the “Antibody titer, Mean” value is given as 5891.8 ng/mL. Also, the Antibody titer with anti-Aβ IgG antibody [1] (listed as Cys2BAA) was 7708 ng/mL and 423 ng/mL and 15328 ng/mL and 108 ng/mL.

With “CDAEFRHDSGYEVHHQKLVFFAEDVGSNKC [Cys28AACys, Peptide with addition of each 1 molecule of cysteine at the C-terminal and the N-terminal]”, in the assay with anti-Aβ IgG antibody [1], the “Antibody titer, Mean” value is reported as 13051.6 ng/mL; the Antibody titer was 772 ng/mL and 49849 ng/mL and 1537 ng/mL and 48 ng/mL.

Take “DAEFRHDCSGYEVHHQKLVFFAEDVGSNK [28AA7Cys, 28-amino acid Aβ peptide with insertion of cysteine after residue 7]”: in the assay with anti-Aβ IgG antibody [2], the “Antibody titer, Mean” value was determined as 23.0 ng/mL; the Antibody titer is 21 ng/mL and 24 ng/mL and 17 ng/mL and 30 ng/mL.

“DAEFRHDSGYCEVHHQKLVFFAEDVGSNK [28AA10Cys, 28-amino acid Aβ peptide with insertion of cysteine after residue 10]”: in the assay with anti-Aβ IgG antibody [2], the “Antibody titer, Mean” value came to 17.7 ng/mL; the Antibody titer is 26 ng/mL and 19 ng/mL and 18 ng/mL and 8 ng/mL.

On to “DAEFRHDSGYEVHHQKLVCFFAEDVGSNK [28AA18Cys, 28-amino acid Aβ peptide with insertion of cysteine between 18th-19th amino acid residues]”, for which, in the assay on anti-Aβ IgG antibody [2], the “Antibody inducing ability” value is on record as “antibody inducing ability was found”; the “Antibody inducing ability as compared to the group administered with 28AACys” value is given as “higher antibody inducing ability”; the “Antibody titer, Mean” value amounted to 611899.2 ng/mL; the Antibody titer is 2163676 ng/mL and 92083 ng/mL and 54037 ng/mL and 137801 ng/mL.

Regarding “DAEFRHDSGYEVHHQKLVFFAEDVGCSNK [28AA25Cys, Aβ peptide with insertion of cysteine between the 25th and 26th amino acid residues]”, in the assay on anti-Aβ IgG antibody [2], the “Antibody inducing ability” value was “antibody inducing ability was found”; the “Antibody titer, Mean” value is 6860.8 ng/mL; the Antibody titer is 14972 ng/mL and 4721 ng/mL and 4483 ng/mL and 3267 ng/mL.

With “DAEFRHDSGYEVHHQKLVFFAEDVGSC [26AACys, 26-amino acid Aβ peptide with addition of cysteine at the C-terminal]”, in the assay with anti-Aβ IgG antibody [3], the “Antibody titer, Mean” value is 24.5 ng/mL; the Antibody titer was 39 ng/mL and 19 ng/mL (2×) and 21 ng/mL.

“DAEFRHDSGYEVHHQKLVFFAEDVGSNC [27AACys, 27-amino acid Aβ peptide with addition of cysteine at the C-terminal]”: in the assay on anti-Aβ IgG antibody [3], the “Antibody titer, Mean” value was 19.0 ng/mL; the Antibody titer is 15 ng/mL and 19 ng/mL (2×) and 24 ng/mL.

“DAEFRHDSGYEVHHQKLVFFAEDVGSNKC [28AACys, 28-amino acid Aβ peptide with addition of cysteine]”: the “Antibody titer, Mean” value with anti-Aβ IgG antibody [1] was 155867.0 ng/mL; with anti-Aβ IgG antibody [4] (group mean of 5 mice), 4237.48 ng/mL; in the assay with anti-Aβ IgG antibody [2], 18946.0 ng/mL; with anti-Aβ IgG antibody [5], 5070.2 ng/mL; with anti-Aβ IgG antibody [3] it was 51916.1 ng/mL; with anti-Aβ IgG antibody [6] (group mean of 4 mice), 19243.7 ng/mL. In addition, the “Antibody titer, Mean” value with anti-Aβ IgG antibody [7] (group mean of 4 mice, Day 7 from the final 4th immunization) came out at 5070.2 ng/mL. For the same sequence, the Antibody titer in the assay on anti-Aβ IgG antibody [1] is 290461 ng/mL and 94 ng/mL and 139927 ng/mL and 192986 ng/mL; in the assay on anti-Aβ IgG antibody [4] (individual animals (No. 1-5), primary 100 μg, 2nd and 3rd 50 μg per animal, 2-week intervals), 1714.4 ng/mL and 5949.1 ng/mL and 10122.3 ng/mL and 716.6 ng/mL and 2685.0 ng/mL; in the assay with anti-Aβ IgG antibody [2], 20883 ng/mL and 10503 ng/mL and 38907 ng/mL and 5491 ng/mL; in the assay with anti-Aβ IgG antibody [5], 211 ng/mL and 365 ng/mL and 19578 ng/mL and 127 ng/mL; with anti-Aβ IgG antibody [3], 3120 ng/mL and 2191 ng/mL and 115618 ng/mL and 86736 ng/mL; in the assay with anti-Aβ IgG antibody [6] (individual animals (No. 1-4), 100 μg Aβ peptide per animal, 3 times at 2-week intervals), 8847 ng/mL and 9458 ng/mL and 10446 ng/mL and 48224 ng/mL. In addition, the Antibody titer in the assay on anti-Aβ IgG antibody [7] (individual animals (No. 1-4), Day 7 from the final 4th immunization, 100 μg/mouse, 2-week intervals, no adjuvant) is 211 ng/mL and 365 ng/mL and 19578 ng/mL and 127 ng/mL. Also, the “Antibody inducing ability” value is recorded as “antibody inducing ability was found” with anti-Aβ IgG antibody [2], “antibody inducing ability was found” in the assay on anti-Aβ IgG antibody [5] and “almost the same antibody inducing ability” in the assay with anti-Aβ IgG antibody [7] (1 vs 2 molecules of cysteine at the C-terminal). In addition, the “Antibody inducing ability against Aβ” value with anti-Aβ IgG antibody [3] is “higher antibody titer”. Further, the “Increase in the antibody titer with addition of cysteine” value with anti-Aβ IgG antibody [8] (compared to the same Aβ peptide fragment without addition of cysteine) is “about 39 fold”. The “Antibody titer, Day 7 from 2nd administration, Mean” value in the assay with anti-Aβ IgG antibody [8] (setting [9]) stood at 157767.25 ng/mL. The “Antibody titer, Day 7 from 3rd administration, Mean” value in the assay with anti-Aβ IgG antibody [8] (setting [9]) is 26043.00 ng/mL. In the assay on anti-Aβ IgG antibody [8] (individual animals (No. 1-4), serum, 100 μg/mouse intradermally or subcutaneously, 2-week intervals, no adjuvant), the “Antibody titer, Day 7 from 2nd administration” value is 74096.0 ng/mL and 30542.0 ng/mL and 389239.0 ng/mL and 137192.0 ng/mL. Further, the “Antibody titer, Day 7 from 3rd administration” value with anti-Aβ IgG antibody [8] (individual animals (No. 1-4), serum, 100 μg/mouse intradermally or subcutaneously, 3 times at 2-week intervals, no adjuvant) is 20265.0 ng/mL and 2337.0 ng/mL and 69198.0 ng/mL and 12372.0 ng/mL.

As for “DAEFRHDSGYEVHHQKLVFFAEDVGSNKCEIFEFTTD [Peptide with addition of cysteine at the C-terminal plus an exogenous peptide]”, in the assay on anti-Aβ IgG antibody [5], the “Antibody inducing ability” value is “antibody inducing ability was found”; the “Antibody titer, Mean” value is listed as 21099.2 ng/mL; the Antibody titer was 8196 ng/mL and 28782 ng/mL and 2162 ng/mL and 45257 ng/mL.

Regarding “DAEFRHDSGYEVHHQKLVFFAEDVGSNKCGAIIG [33AA28Cys, Aβ peptide with insertion of cysteine between the 28th and 29th amino acid residues]”, in the assay with anti-Aβ IgG antibody [2], the “Antibody inducing ability” value is on record as “antibody inducing ability was found”; the “Antibody titer, Mean” value was determined as 4105.0 ng/mL; the Antibody titer is 245 ng/mL and 1932 ng/mL and 29 ng/mL and 14214 ng/mL.

“DAEFRHDSGYEVHHQKLVFFAEDVGSNKCGAIIGLM [35AA28Cys, Aβ peptide with insertion of cysteine between the 28th and 29th amino acid residues]”: in the assay on anti-Aβ IgG antibody [2], the “Antibody inducing ability” value is on record as “antibody inducing ability was found”; the “Antibody titer, Mean” value was determined as 6897.5 ng/mL; the Antibody titer was 1753 ng/mL and 17265 ng/mL and 2103 ng/mL and 6469 ng/mL.

As to “DAEFRHDSGYEVHHQKLVFFAEDVGSNKCTTD [28AACysTTD, Peptide with addition of cysteine at the C-terminal plus an exogenous peptide]”, in the assay with anti-Aβ IgG antibody [5], the “Antibody inducing ability” value is given as “antibody inducing ability was found”; the “Antibody titer, Mean” value is 28279.3 ng/mL; the Antibody titer is 46 ng/mL and 106899 ng/mL and 4316 ng/mL and 1855 ng/mL.
